Laboratory results published in the supplement of paper PMC10307832.

Assays:
Assay in all cases: relative viability (nuclei count vs DMSO), 5 days (fraction); higher = more cells survive
Kobe2602 + Palbociclib = compound: C1=CC(=CC=C1NC(=S)NNC2=C(C=C(C=C2[N+](=O)[O-])C(F)(F)F)[N+](=O)[O-])F [Kobe2602] + CC(=O)c1c(C)c2cnc(Nc3ccc(N4CCNCC4)cn3)nc2n(C2CCCC2)c1=O [Palbociclib] (partner 0.5 µM)
Outline: (§1)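 The day after seeding in 1536-well plates, lung cancer cell lines were treated by pin tool with a single drug, or with a fixed anchor-drug dose together with five library-drug doses (not always all listed) in √10 steps. After 5 days, a combined fix-and-stain solution (final 0.05% Triton X-100, 1% formaldehyde, 1 ug/ml Hoechst) was added. Nuclei counted on 4× images gave relative viability as treated counts over vehicle counts, reported as the median of duplicate plates.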

Cabozantinib + AZD7762 = compound: COc1cc2nccc(Oc3ccc(NC(=O)C4(C(=O)Nc5ccc(F)cc5)CC4)cc3)c2cc1OC [Cabozantinib] + NC(=O)Nc1cc(-c2cccc(F)c2)sc1C(=O)N[C@H]1CCCNC1 [AZD7762] (partner 0.2 µM)
Outline: as §1

Kobe2602 + Dasatinib = compound: C1=CC(=CC=C1NC(=S)NNC2=C(C=C(C=C2[N+](=O)[O-])C(F)(F)F)[N+](=O)[O-])F [Kobe2602] + Cc1nc(Nc2ncc(C(=O)Nc3c(C)cccc3Cl)s2)cc(N2CCN(CCO)CC2)n1 [Dasatinib] (partner 0.075 µM)
Outline: as §1

Cabozantinib + OSI-027 = compound: COc1cc2nccc(Oc3ccc(NC(=O)C4(C(=O)Nc5ccc(F)cc5)CC4)cc3)c2cc1OC [Cabozantinib] + COc1cccc2cc(-c3nc([C@H]4CC[C@H](C(=O)O)CC4)n4ncnc(N)c34)[nH]c12 [OSI-027] (partner 0.5 µM)
Outline: as §1

Cell Line | relative viability (Kobe2602 + Palbociclib; first compound 0.2 µM) | relative viability (Kobe2602 + Palbociclib; first compound 0.6325 µM) | relative viability (Kobe2602 + Palbociclib; first compound 2 µM) | relative viability (Kobe2602 + Palbociclib; first compound 6.325 µM) | relative viability (Kobe2602 + Palbociclib; first compound 20 µM) | relative viability (Cabozantinib + AZD7762; first compound 0.02 µM) | relative viability (Cabozantinib + AZD7762; first compound 0.06325 µM) | relative viability (Cabozantinib + AZD7762; first compound 0.2 µM) | relative viability (Cabozantinib + AZD7762; first compound 0.6325 µM) | relative viability (Cabozantinib + AZD7762; first compound 2 µM) | relative viability (Kobe2602 + Dasatinib; first compound 0.2 µM) | relative viability (Kobe2602 + Dasatinib; first compound 0.6325 µM) | relative viability (Kobe2602 + Dasatinib; first compound 2 µM) | relative viability (Kobe2602 + Dasatinib; first compound 6.325 µM) | relative viability (Kobe2602 + Dasatinib; first compound 20 µM) | relative viability (Cabozantinib + OSI-027; first compound 0.02 µM) | relative viability (Cabozantinib + OSI-027; first compound 0.06325 µM) | relative viability (Cabozantinib + OSI-027; first compound 0.2 µM) | relative viability (Cabozantinib + OSI-027; first compound 0.6325 µM) | relative viability (Cabozantinib + OSI-027; first compound 2 µM)
BEN | 0.502 | 0.497 | 0.481 | 0.483 | 0.443 | 0.624 | 0.891 | 0.746 | 0.773 | 0.59 | 0.322 | 0.353 | 0.395 | 0.303 | 0.324 | 0.314 | 0.311 | 0.28 | 0.299 | 0.24
CAL-12T | 0.515 | 0.6 | 0.411 | 0.408 | 0.407 | 0.714 | 0.682 | 0.641 | 0.651 | 0.567 | 0.462 | 0.388 | 0.413 | 0.474 | 0.376 | 0.588 | 0.688 | 0.711 | 0.715 | 0.645
ChaGo-K-1 | 0.977 | 0.926 | 0.83 | 0.894 | 0.83 | 0.927 | 0.943 | 0.868 | 0.872 | 0.857 | 0.646 | 0.57 | 0.604 | 0.59 | 0.576 | 0.426 | 0.589 | 0.562 | 0.603 | 0.505
EKVX | 0.456 | 0.386 | 0.375 | 0.408 | 0.379 | 0.693 | 0.856 | 0.558 | 0.703 | 0.763 | 0.6 | 0.578 | 0.513 | 0.474 | 0.454 | 0.655 | 0.981 | 0.637 | 0.679 | 0.778
EMC-BAC-2 | 0.522 | 0.543 | 0.494 | 0.566 | 0.525 | 0.95 | 1.26 | 1.11 | 1.13 | 1.13 | 0.33 | 0.322 | 0.338 | 0.367 | 0.376 | 0.337 | 0.379 | 0.398 | 0.385 | 0.361
EPLC-272H | 0.337 | 0.357 | 0.352 | 0.321 | 0.359 | 0.237 | 0.339 | 0.195 | 0.207 | 0.209 | 0.387 | 0.387 | 0.303 | 0.331 | 0.355 | 0.257 | 0.326 | 0.215 | 0.345 | 0.29
H3255 | 0.336 | 0.337 | 0.333 | 0.273 | 0.303 | 0.938 | 1.14 | – | 0.911 | 0.923 | 0.532 | 0.42 | 0.408 | 0.356 | 0.349 | 0.527 | 0.662 | – | 0.621 | 0.613
HARA | 0.331 | 0.227 | 0.237 | 0.268 | 0.366 | 0.291 | 0.332 | – | 0.339 | 0.301 | 0.258 | 0.311 | 0.321 | 0.252 | 0.286 | 0.309 | 0.633 | 0.377 | 0.57 | 0.555
HCC-15 | 0.698 | 0.72 | 0.662 | 0.547 | 0.618 | 1.22 | 1.27 | 1.13 | 1.26 | 1.19 | 0.586 | 0.658 | 0.555 | 0.574 | 0.494 | 0.477 | 0.744 | 0.66 | 0.657 | 0.622
HCC-78 | 0.522 | 0.446 | 0.479 | 0.535 | 0.52 | – | 0.699 | 0.466 | 0.46 | 0.39 | 0.413 | 0.393 | 0.373 | 0.427 | 0.535 | – | 0.439 | 0.287 | 0.291 | 0.258
HCC-366 | 0.377 | 0.344 | 0.35 | 0.384 | 0.395 | 0.34 | 0.358 | 0.21 | 0.209 | 0.275 | 0.613 | 0.632 | 0.597 | 0.646 | 0.727 | 0.753 | 1.03 | 0.951 | 0.795 | 0.778
HCC-827 | 0.528 | 0.574 | 0.621 | 0.489 | 0.53 | 0.189 | 0.268 | – | 0.225 | 0.189 | 0.289 | 0.284 | 0.43 | 0.388 | 0.404 | 0.782 | 0.861 | – | 0.679 | 0.526
HOP-62 | 0.442 | 0.499 | 0.419 | 0.456 | 0.485 | 0.629 | 0.798 | 0.633 | 0.441 | 0.428 | 0.646 | 0.69 | 0.593 | 0.689 | 0.721 | 0.825 | 0.915 | 0.781 | 0.829 | 0.781
LC-2-ad | 0.466 | 0.514 | 0.533 | 0.506 | 0.484 | 0.766 | 0.98 | 0.79 | 0.902 | 0.866 | 0.562 | 0.642 | 0.454 | 0.636 | 0.686 | – | 0.933 | 0.74 | 0.839 | 0.729
LCLC-97TM1 | 0.192 | 0.242 | – | 0.218 | 0.194 | – | 0.305 | 0.285 | 0.195 | 0.304 | 0.886 | 0.759 | 0.705 | 0.937 | 0.802 | 0.153 | 0.572 | 0.448 | 0.57 | 0.689
LCLC-103H | 0.504 | 0.518 | 0.537 | 0.539 | 0.491 | 0.762 | 0.87 | 0.811 | 0.813 | 0.721 | 0.47 | 0.487 | 0.457 | 0.512 | 0.49 | 0.344 | 0.561 | 0.487 | 0.509 | 0.394
LK-2 | 0.904 | 0.628 | 0.81 | 0.649 | 0.687 | – | 0.659 | 0.426 | 0.434 | 0.408 | 0.377 | 0.35 | 0.319 | 0.274 | 0.342 | 0.158 | 0.193 | 0.211 | 0.229 | 0.225
LOU-NH91 | 0.475 | 0.5 | 0.537 | 0.526 | 0.529 | 0.637 | 0.862 | 0.703 | 0.752 | 0.768 | 0.506 | 0.596 | 0.476 | 0.535 | 0.617 | 0.65 | 0.744 | – | 0.652 | 0.704
LU99A | 0.424 | 0.488 | 0.411 | 0.473 | 0.451 | 0.292 | 0.376 | 0.411 | 0.279 | 0.397 | 0.427 | 0.461 | 0.433 | 0.525 | 0.615 | 0.231 | 0.298 | 0.274 | 0.31 | 0.311
LXF-289 | 0.585 | 0.597 | 0.59 | 0.556 | 0.62 | 1.15 | 1.07 | 1.13 | 1.09 | 1.06 | 0.253 | 0.23 | 0.248 | 0.208 | 0.245 | 0.612 | 0.856 | 0.753 | 0.816 | 0.78
NCI-H23 | 0.559 | 0.568 | 0.446 | 0.522 | 0.544 | – | 0.312 | 0.248 | 0.261 | 0.241 | 0.697 | 0.879 | 0.776 | 0.817 | 1.02 | – | 0.729 | 0.645 | 0.624 | 0.489
NCI-H322M | 0.477 | 0.535 | 0.485 | 0.491 | 0.559 | 0.574 | 0.716 | 0.543 | 0.725 | 0.612 | 0.254 | 0.25 | 0.245 | 0.241 | 0.297 | 0.475 | 0.596 | 0.486 | 0.572 | 0.54
NCI-H358 | 0.14 | 0.128 | 0.142 | 0.144 | 0.138 | 0.457 | 0.715 | 0.499 | 0.544 | 0.62 | 0.176 | 0.167 | 0.209 | 0.172 | 0.186 | 0.641 | 0.888 | 0.628 | 0.74 | 0.67
NCI-H441 | 0.236 | 0.198 | 0.243 | 0.237 | 0.221 | 1.64 | 1.43 | 1.1 | 1.44 | 0.826 | 0.66 | 0.606 | 0.71 | 0.699 | 0.621 | 0.428 | 0.653 | 0.663 | 0.564 | 0.559
NCI-H460 | – | 0.22 | 0.184 | 0.145 | 0.176 | 0.633 | 0.801 | 0.68 | 0.623 | 0.63 | 0.504 | 0.518 | 0.507 | 0.49 | 0.575 | 0.761 | 0.927 | 0.664 | 0.624 | 0.584
NCI-H522 | 1.13 | 1.1 | 0.915 | 1.11 | 0.993 | 0.704 | 0.767 | 0.819 | 0.999 | 0.865 | 0.83 | 0.977 | 0.914 | 0.874 | 0.952 | 0.585 | 0.79 | 0.7 | 0.766 | 0.767
NCI-H647 | 0.334 | 0.467 | 0.373 | 0.425 | 0.409 | 0.44 | 0.77 | 0.427 | 0.594 | 0.4 | 0.244 | 0.338 | 0.158 | 0.17 | 0.2 | 0.589 | 0.633 | 0.641 | 0.636 | 0.548
